According to PubChem BioAssay (NCI):
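GI50 marks 50% less growth. TGI denotes the concentration required for complete inhibition of growth.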

Experiments:
Assay in all cases: DTP human tumour cell line panel, 384-well format
KM12 colon = system: KM12 colon
NCI-H522 lung = system: NCI-H522 lung
SK-MEL-5 melanoma = system: SK-MEL-5 melanoma
MDA-MB-435 melanoma = system: MDA-MB-435 melanoma
HS 578T breast = system: HS 578T breast
NCI-H23 lung = system: NCI-H23 lung
NCI-H226 lung = system: NCI-H226 lung
A549 NSCLC = system: A549 NSCLC
UACC-257 melanoma = system: UACC-257 melanoma
HL-60(TB) leukemia = system: HL-60(TB) leukemia
HT29 colon = system: HT29 colon
TK-10 renal = system: TK-10 renal
SN12C renal = system: SN12C renal

N=C(N)c1ccc2nc(-c3cc(CC(=O)N[C@@H](CC(=O)O)C(=O)O)cc(-c4cc(S(N)(=O)=O)ccc4O)c3O)[nH]c2c1
GI50 (KM12 colon): > 100 µM
TGI (KM12 colon): > 100 µM
GI50 (NCI-H522 lung): > 100 µM
TGI (NCI-H522 lung): > 100 µM
GI50 (SK-MEL-5 melanoma): > 100 µM
TGI (SK-MEL-5 melanoma): > 100 µM
GI50 (MDA-MB-435 melanoma): > 100 µM
TGI (MDA-MB-435 melanoma): > 100 µM
GI50 (HS 578T breast): > 100 µM
TGI (HS 578T breast): > 100 µM
GI50 (NCI-H23 lung): > 100 µM
TGI (NCI-H23 lung): > 100 µM
GI50 (NCI-H226 lung): > 100 µM
TGI (NCI-H226 lung): > 100 µM
GI50 (A549 NSCLC): > 100 µM
TGI (A549 NSCLC): > 100 µM
GI50 (UACC-257 melanoma): > 100 µM
TGI (UACC-257 melanoma): > 100 µM
GI50 (HL-60(TB) leukemia): > 100 µM
TGI (HL-60(TB) leukemia): > 100 µM
GI50 (HT29 colon): > 100 µM
TGI (HT29 colon): > 100 µM
GI50 (TK-10 renal): > 100 µM
TGI (TK-10 renal): > 100 µM
GI50 (SN12C renal): > 100 µM
TGI (SN12C renal): > 100 µM
